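1) Cells in 96-well plates. 2) Compound, 48 h, 5 concentrations. 3) Linear interpolation between surrounding doses. 4) Unreached endpoint = highest concentration. Abbreviation: GI50, concentration required for 50% inhibition of growth. TGI: total growth inhibition.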
Columns and labels:
Test in all cases: NCI anticancer screen, dose series, 48 h
786-0 renal = test system: 786-0 renal
UACC-62 melanoma = test system: UACC-62 melanoma
OVCAR-8 ovarian = test system: OVCAR-8 ovarian
LXFL 529 NSCLC = test system: LXFL 529 NSCLC
SK-MEL-28 melanoma = test system: SK-MEL-28 melanoma
UO-31 renal = test system: UO-31 renal
M19-MEL melanoma = test system: M19-MEL melanoma
HCT-15 colon = test system: HCT-15 colon
MCF7 breast = test system: MCF7 breast
T-47D breast = test system: T-47D breast

O=C1CN=C(c2ccccc2)c2ccncc2N1
TGI (786-0 renal): > 100 µM
TGI (UACC-62 melanoma): > 100 µM
TGI (OVCAR-8 ovarian): > 100 µM
TGI (LXFL 529 NSCLC): > 100 µM
TGI (SK-MEL-28 melanoma): > 100 µM
TGI (UO-31 renal): > 100 µM
TGI (M19-MEL melanoma): > 100 µM

CCOP(=O)(OCC)C(C(=O)OC)C(=O)C(=O)Nc1cccc([N+](=O)[O-])c1 (stereo not drawn)
TGI (786-0 renal): > 100 µM
TGI (UACC-62 melanoma): > 100 µM
TGI (HCT-15 colon): > 100 µM
TGI (OVCAR-8 ovarian): > 100 µM
TGI (LXFL 529 NSCLC): > 100 µM
TGI (SK-MEL-28 melanoma): > 100 µM
TGI (UO-31 renal): > 100 µM
TGI (M19-MEL melanoma): > 100 µM

CN(N=O)C(=O)NC(CCCCNC(=O)OCc1ccccc1)C(=O)OCc1ccccc1 (stereo not drawn)
TGI (786-0 renal): 33.6 µM
TGI (UACC-62 melanoma): 33.1 µM
TGI (HCT-15 colon): > 100 µM
TGI (OVCAR-8 ovarian): 36.7 µM
TGI (LXFL 529 NSCLC): 94 µM
TGI (SK-MEL-28 melanoma): 56.1 µM
TGI (UO-31 renal): 38.3 µM
TGI (M19-MEL melanoma): 91.2 µM

CC(C)N1CCOC(c2ccc(O)c(O)c2)C1 (stereo not drawn)
TGI (786-0 renal): > 100 µM
TGI (UACC-62 melanoma): > 100 µM
TGI (HCT-15 colon): > 100 µM
TGI (OVCAR-8 ovarian): > 100 µM
TGI (LXFL 529 NSCLC): > 100 µM
TGI (SK-MEL-28 melanoma): > 100 µM
TGI (UO-31 renal): > 100 µM
TGI (M19-MEL melanoma): > 100 µM

COc1ccc(C(O)C(c2ccc(OCc3ccccc3)cc2)c2ccc(OCc3ccccc3)cc2)cc1 (stereo not drawn)
TGI (786-0 renal): > 100 µM
TGI (UACC-62 melanoma): > 100 µM
TGI (HCT-15 colon): > 100 µM
TGI (OVCAR-8 ovarian): > 100 µM
TGI (LXFL 529 NSCLC): > 100 µM
TGI (SK-MEL-28 melanoma): > 100 µM
TGI (UO-31 renal): > 100 µM
TGI (M19-MEL melanoma): > 100 µM

O=S(=O)(c1ccccc1)N1CCC1c1ccccc1 (stereo not drawn)
TGI (786-0 renal): > 100 µM
TGI (UACC-62 melanoma): > 100 µM
TGI (HCT-15 colon): > 100 µM
TGI (OVCAR-8 ovarian): > 100 µM
TGI (SK-MEL-28 melanoma): > 100 µM
TGI (UO-31 renal): > 100 µM
TGI (M19-MEL melanoma): > 100 µM

O=C(O)c1c2c(c(O)c3c1CN(C1CCCCC1)CO3)OCN(C1CCCCC1)C2
TGI (786-0 renal): > 100 µM
TGI (MCF7 breast): 39.2 µM
TGI (UACC-62 melanoma): > 100 µM
TGI (HCT-15 colon): > 100 µM
TGI (OVCAR-8 ovarian): > 100 µM
TGI (T-47D breast): > 100 µM
TGI (SK-MEL-28 melanoma): > 100 µM
TGI (UO-31 renal): > 100 µM

C=C1C(=O)O[C@@H]2C[C@@]3(C)CCC[C@H](C)C3=C[C@H]12 (tested in a mixture with another compound)
TGI (786-0 renal): 2.83 µM
TGI (MCF7 breast): 10.7 µM
TGI (UACC-62 melanoma): 6.94 µM
TGI (HCT-15 colon): 4.39 µM
TGI (OVCAR-8 ovarian): 3.13 µM
TGI (T-47D breast): 3.18 µM
TGI (SK-MEL-28 melanoma): 5.13 µM
TGI (UO-31 renal): 3.57 µM

COc1ccc(-c2cc(=O)c3c(C)ccnc3[nH]2)cc1
GI50 (786-0 renal): 25.3 µM
TGI (786-0 renal): > 100 µM
TGI (MCF7 breast): > 100 µM
TGI (UACC-62 melanoma): 32.6 µM
TGI (HCT-15 colon): > 100 µM
TGI (OVCAR-8 ovarian): > 100 µM
TGI (T-47D breast): > 100 µM
TGI (SK-MEL-28 melanoma): > 100 µM
TGI (UO-31 renal): > 100 µM

CCCN1CCC(Oc2cc(Nc3nc(Nc4cccc(F)c4C(N)=O)c4cc[nH]c4n3)c(OC)cc2Cl)CC1
GI50 (786-0 renal): 3.65 µM
TGI (786-0 renal): 7.52 µM
GI50 (MCF7 breast): 0.907 µM
TGI (MCF7 breast): 3.97 µM
GI50 (UACC-62 melanoma): 3.61 µM
TGI (UACC-62 melanoma): 7.09 µM
GI50 (HCT-15 colon): 1.44 µM
TGI (HCT-15 colon): 6.84 µM
GI50 (OVCAR-8 ovarian): 4.11 µM
TGI (OVCAR-8 ovarian): 9.52 µM
GI50 (T-47D breast): 1.32 µM
TGI (T-47D breast): 3.12 µM
GI50 (SK-MEL-28 melanoma): 2.82 µM
TGI (SK-MEL-28 melanoma): 6.09 µM
GI50 (UO-31 renal): 2.94 µM
TGI (UO-31 renal): 8.93 µM

N#Cc1nc2cc(Cl)c(Cl)cc2nc1-c1ccc(Cl)cc1
GI50 (786-0 renal): 16.8 µM
TGI (786-0 renal): 34.8 µM
GI50 (MCF7 breast): 37.3 µM
TGI (MCF7 breast): > 100 µM
GI50 (UACC-62 melanoma): 33.2 µM
TGI (UACC-62 melanoma): > 70.9 µM
GI50 (HCT-15 colon): > 71.9 µM
TGI (HCT-15 colon): > 100 µM
GI50 (OVCAR-8 ovarian): 55.7 µM
TGI (OVCAR-8 ovarian): > 100 µM
GI50 (T-47D breast): > 66.1 µM
TGI (T-47D breast): > 100 µM
GI50 (SK-MEL-28 melanoma): > 92 µM
TGI (SK-MEL-28 melanoma): > 100 µM
GI50 (UO-31 renal): 34.7 µM
TGI (UO-31 renal): > 100 µM
